Results reported in ChEMBL document CHEMBL3603759, “Ribosome-targeting antibiotics as inhibitors of oncogenic microRNAs biogenesis: Old scaffolds for new perspectives in RNA targeting” (Bioorg Med Chem, 2015).
Calls of active or inactive are those of the source. The calls are words filed in the database; no cut-off is given here.

Legend:
[1] = Inhibition of pre-miR-372 (unknown origin) cleavage assessed as reduction of oncogenic microRNAs biogenesis at 200 uM by measuring fluorescence every minute for 5 hrs using 5'-FAM,3'-dabcyl-pre-miRNA beacons by FRET assay in presence of recombinant Dicer
[2] = Inhibition of pre-miR-373 (unknown origin) cleavage assessed as reduction of oncogenic microRNAs biogenesis at 200 uM by measuring fluorescence every minute for 5 hrs using 5'-FAM,3'-dabcyl-pre-miRNA beacons by FRET assay in presence of recombinant Dicer
[3] = Inhibition of pre-miR-17 (unknown origin) cleavage assessed as reduction of oncogenic microRNAs biogenesis at 200 uM by measuring fluorescence every minute for 5 hrs using 5'-FAM,3'-dabcyl-pre-miRNA beacons by FRET assay in presence of recombinant Dicer
[4] = Inhibition of pre-miR-21 (unknown origin) cleavage assessed as reduction of oncogenic microRNAs biogenesis at 200 uM by measuring fluorescence every minute for 5 hrs using 5'-FAM,3'-dabcyl-pre-miRNA beacons by FRET assay in presence of recombinant Dicer
[5] = Inhibition of pre-miR-372 (unknown origin) cleavage assessed as reduction of oncogenic microRNAs biogenesis by measuring fluorescence every minute for 5 hrs using 5'-FAM,3'-dabcyl-pre-miRNA beacons by FRET assay in presence of recombinant Dicer
[6] = Inhibition of pre-miR-17 (unknown origin) cleavage assessed as reduction of oncogenic microRNAs biogenesis by measuring fluorescence every minute for 5 hrs using 5'-FAM,3'-dabcyl-pre-miRNA beacons by FRET assay in presence of recombinant Dicer
[7] = Inhibition of pre-miR-373 (unknown origin) cleavage assessed as reduction of oncogenic microRNAs biogenesis by measuring fluorescence every minute for 5 hrs using 5'-FAM,3'-dabcyl-pre-miRNA beacons by FRET assay in presence of recombinant Dicer
[8] = Inhibition of pre-miR-21 (unknown origin) cleavage assessed as reduction of oncogenic microRNAs biogenesis by measuring fluorescence every minute for 5 hrs using 5'-FAM,3'-dabcyl-pre-miRNA beacons by FRET assay in presence of recombinant Dicer
[9] = Binding affinity to 5'-FAM-pre-miR-372 (unknown origin) after 4 hrs by fluorescence assay; details: read-out: Kd
[10] = Binding affinity to 5'-FAM-pre-miR-17 (unknown origin) after 4 hrs by fluorescence assay; details: read-out: Kd
[11] = Binding affinity to 5'-FAM-pre-miR-373 (unknown origin) after 4 hrs by fluorescence assay; details: read-out: Kd
[12] = Binding affinity to 5'-FAM-pre-miR-372 (unknown origin) after 4 hrs by fluorescence assay in presence of 100-fold excess of Escherichia coli tRNA
[13] = Ratio of Kd for 5'-FAM-pre-miR-372 (unknown origin) in presence of 100-fold excess of Escherichia coli tRNA to Kd for 5'-FAM-pre-miR-372 (unknown origin)
[14] = Binding affinity to 5'-FAM-pre-miR-372 (unknown origin) after 4 hrs by fluorescence assay in presence of 100-fold excess of 15-mer DNA
[15] = Ratio of Kd for 5'-FAM-pre-miR-372 (unknown origin) in presence of 100-fold excess of 15-mer DNA to Kd for 5'-FAM-pre-miR-372 (unknown origin)
[16] = Inhibition of pre-miR-372 (unknown origin) cleavage at C27 at 10 to 100 uM after 15 mins by RNase footprinting assay in presence of RNase-V1
[17] = Inhibition of pre-miR-372 (unknown origin) cleavage at U15-G16-G17-A18 at 10 to 100 uM after 15 mins by RNase footprinting assay in presence of RNase-V1
[18] = Inhibition of pre-miR-372 (unknown origin) cleavage at A10-A11 at 10 to 100 uM after 15 mins by RNase footprinting assay in presence of RNase-V1
[19] = Inhibition of pre-miR-372 (unknown origin) cleavage at 10 to 100 uM after 15 mins by RNase footprinting assay in presence of RNase-S1
[20] = Inhibition of pre-miR-372 (unknown origin) cleavage at A24 at 1 to 100 uM after 2 hrs by denaturing gel electrophoresis in presence of recombinant Dicer
[21] = Inhibition of pre-miR-372 (unknown origin) cleavage at A42 at 1 to 100 uM after 2 hrs by denaturing gel electrophoresis in presence of recombinant Dicer
[22] = Inhibition of pre-miR-372 (unknown origin) cleavage at U28 at 1 to 100 uM after 2 hrs by denaturing gel electrophoresis in presence of recombinant Dicer
[23] = Binding affinity to 5'-FAM-pre-miR-372 (unknown origin) assessed as change in total free energy by thermodynamic assay
[24] = Inhibition of pre-miR-372 (unknown origin) cleavage at 1 to 100 uM after 15 mins by RNase footprinting assay in presence of RNase-V1
[25] = Inhibition of pre-miR-372 (unknown origin) cleavage at U31, G32 and U33 at 1 to 100 uM after 15 mins by RNase footprinting assay in presence of RNase-S1

| Structure (SMILES) | inhibition [1] [%] | inhibition [2] [%] | inhibition [3] [%] | inhibition [4] [%] | IC50 [5] [µM] | IC50 [6] [µM] | IC50 [7] [µM] | IC50 [8] [µM] | Kd [9] [µM] | Kd [10] [µM] | Kd [11] [µM] | Kd [12] [µM] | Ratio [13] | Kd [14] [µM] | Ratio [15] | inhibition [20] | inhibition [21] | inhibition [22] | Activity [23] [%] | other results |
| --- | --- | --- | --- | --- | --- | --- | --- | --- | --- | --- | --- | --- | --- | --- | --- | --- | --- | --- | --- | --- |
| NC[C@@H]1O[C@H](O[C@H]2[C@@H](O)[C@H](O[C@@H]3[C@@H](O)[C@H](N)C[C@H](N)[C@H]3O[C@H]3O[C@H](CN)[C@@H](O)[C@H](O)[C@H]3N)O[C@@H]2CO)[C@H](N)[C@@H](O)[C@@H]1O [FRAMYCETIN] | 60 | 60 | 60 | 60 | 88.2 | 93.7 | 143 | 76.7 | 11.6 | 1.88 | 15.2 | 11.7 | 1 | 11.3 | 1 | Active | Active | Active | 70 | inhibition [16]: Active; inhibition [17]: Active; inhibition [18]: Active; inhibition [19]: inactive |
| CN(C)c1ccc(O)c2c1C[C@H]1C[C@H]3[C@H](N(C)C)C(O)=C(C(N)=O)C(=O)[C@@]3(O)C(O)=C1C2=O [MINOCYCLINE] | 30 | 30 | 30 | 30 | 397 | 129 | 327 | 369 | 0.612 | 0.651 | 0.597 | 1.98 | 3.2 | 1.45 | 2.4 | inactive | inactive | inactive | 91 | inhibition [24]: inactive; inhibition [25]: Active |
